Experimental data reported in patent publication US20150105252A1, “SUBSTITUTED PYRAZOLES AS HERBICIDES” (E I DU PONT DE NEMOURS AND COMPANY, priority 2013, published 2015).

Tests used:
[1] = test system: foxtail, green; assay: Test E preemergence; assay type: in vivo, Setaria viridis; details: 21 days, scale 0 to 100
From the text: (§1) Seeds of plant species selected from bermudagrass (Cynodon dactylon), Surinam grass (Brachiaria decumbens), crabgrass, large (large crabgrass, Digitaria sanguinalis), crabgrass, naked (naked crabgrass, Digitaria nuda), foxtail, green (green foxtail, Setaria viridis), johnsongrass (Sorghum halepense), kochia (Kochia scoparia), morningglory (pitted morningglory, Ipomoea lacunosa), nutsedge, purple (purple nutsedge, Cyperus rotundus), ragweed (common ragweed, Ambrosia elation), mustard, black (black mustard, Brassica nigra), guineagrass (Panicum maximum), dallisgrass (Paspalum dilatatum), barnyardgrass (Echinochloa crus-galli), sandbur (southern sandbur, Cenchrus echinatus), sowthistle (common sowthistle, Sonchus oleraceous), ryegrass, Italian (Italian ryegrass, Lolium multiflorum), signalgrass (broadleaf signalgrass, Brachiaria platyphylla), dayflower, VA (Virginia (VA) dayflower, Commelina virginica), bluegrass (annual bluegrass, Poa annua), quackgrass (Elytrigia repens), mallow (common mallow, Malva sylvestris), buckwheat, wild (wild buckwheat, Polygonum convolvulus), leafy spurge (Euphorbia esula), common chickweed (Stellaria media), wild poinsettia (Euphorbia heterophylla), pigweed, palmer (palmer pigweed, Amaranthus palmeri), and pigweed (redroot pigweed, Amaranthus retroflexus) were planted into a blend of loam soil and sand and treated preemergence with test chemicals formulated in a non-phytotoxic solvent mixture which included a surfactant.
(§2) Treated plants and controls were maintained in a greenhouse for 21 days, after which time all species were compared to controls and visually evaluated. Plant response ratings, summarized in Table E, are based on a scale of 0 to 100 where 0 is no effect and 100 is complete control. A dash (-) response means no test result.

[2] = test system: morningglory; assay: Test E preemergence; assay type: in vivo, Ipomoea lacunosa; details: 21 days, scale 0 to 100
From the text: as §1, §2

[3] = test system: dayflower, VA; assay: Test E preemergence; assay type: in vivo, Commelina virginica; details: 21 days, scale 0 to 100
From the text: as §1, §2

[4] = test system: quackgrass; assay: Test E preemergence; assay type: in vivo, Elytrigia repens; details: 21 days, scale 0 to 100
From the text: as §1, §2

[5] = test system: common chickweed; assay: Test E preemergence; assay type: in vivo, Stellaria media; details: 21 days, scale 0 to 100
From the text: as §1, §2

[6] = test system: common ragweed; assay: Test F postemergence; assay type: in vivo, Ambrosia elation; details: scale 0 to 100
From the text: Seeds of plant species selected from corn (Zea mays), soybean (Glycine max), velvetleaf (Abutilon theophrasti), lambsquarters (Chenopodium album), wild poinsettia (Euphorbia heterophylla), pigweed, palmer (palmer pigweed, Amaranthus palmeri), common waterhemp (Amaranthus rudis), surinam grass (Brachiaria decumbens), large crabgrass (Digitaria sanguinalis), crabgrass, Brazil (Brazilian crabgrass, Digitaria horizontalis), fall panicum (Panicum dichotomiflorum), giant foxtail (Setaria faberii), green foxtail (Setaria viridis), goosegrass (Eleusine indica), johnsongrass (Sorghum halepense), common ragweed (Ambrosia elation), barnyardgrass (Echinochloa crus-galli), southern sandbur (Cenchrus echinatus), arrowleaf sida (Sida rhombifolia), Italian ryegrass (Lolium multiflorum), dayflower, VA (Virginia (VA) dayflower, Commelina virginica), field bindweed (Convolvulus arvensis), cocklebur (common cocklebur, Xanthium strumarium), morningglory (Ipomoea coccinea), nightshade (eastern black nightshade, Solanum ptycanthum), kochia (Kochia scoparia), yellow nutsedge (Cyperus esculentus), and hairy beggarticks (Bidens pilosa), were planted into a silt loam soil and treated preemergence with test chemicals formulated in a non-phytotoxic solvent mixture which included a surfactant.
At the same time, plants from these crop and weed species and also horseweed (Canada horseweed, Conyza canadensis), smartweed (ladysthumb smartweed, Polygonum persicaria), waterhemp_RES1, (ALS & Triazine resistant common waterhemp, Amaranthus rudis), and waterhemp_RES2, (ALS & HPPD resistant common waterhemp, Amaranthus rudis) were treated with postemergence applications of test chemicals formulated in the same manner. Plants ranged in height from 2 to 18 cm for postemergence treatments (1- to 4-leaf stage). Treated plants and controls were maintained in a greenhouse for 14 to 21 days, after which time all species were compared to controls and visually evaluated. Plant response ratings, summarized in Table F, are based on a scale of 0 to 100 where 0 is no effect and 100 is complete control. A dash (-) response means no test result.

[7] = test system: southern sandbur; assay: Test F postemergence; assay type: in vivo, Cenchrus echinatus; details: scale 0 to 100
In short: (§3)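 Visual injury was scored from 0 (none) to 100 (complete control) relative to untreated controls after 14–21 days in a greenhouse. Before that, formulated compound (solvent plus surfactant) was sprayed either on silt-loam soil right after sowing or on emerged plants at the 1–4-leaf stage, 2–18 cm tall.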

[8] = test system: Italian ryegrass; assay: Test F postemergence; assay type: in vivo, Lolium multiflorum; details: scale 0 to 100
In short: as §3

Structure (SMILES): CCOc1cc(C(=O)NCC(F)(F)F)nn1Cc1ccnc(C(F)(F)F)c1 [Compound 104]
- Plant response rating, Foxtail, Green ([1]; 16 g ai/ha): 100
- Plant response rating, Foxtail, Green ([1]; 31 g ai/ha): 100
- Plant response rating, Foxtail, Green ([1]; 62 g ai/ha): 100
- Plant response rating, Foxtail, Green ([1]; 125 g ai/ha): 100
- Plant response rating, Foxtail, Green ([1]; 250 g ai/ha): 100
- Plant response rating, Morningglory ([2]; 16 g ai/ha): 98
- Plant response rating, Morningglory ([2]; 31 g ai/ha): 98
- Plant response rating, Morningglory ([2]; 62 g ai/ha): 100
- Plant response rating, Morningglory ([2]; 125 g ai/ha): 100
- Plant response rating, Morningglory ([2]; 250 g ai/ha): 100
- Plant response rating, Dayflower, VA ([3]; 16 g ai/ha): 98
- Plant response rating, Dayflower, VA ([3]; 31 g ai/ha): 98
- Plant response rating, Dayflower, VA ([3]; 62 g ai/ha): 100
- Plant response rating, Dayflower, VA ([3]; 125 g ai/ha): 100
- Plant response rating, Dayflower, VA ([3]; 250 g ai/ha): 100
- Plant response rating, Quackgrass ([4]; 16 g ai/ha): 75
- Plant response rating, Quackgrass ([4]; 31 g ai/ha): 95
- Plant response rating, Quackgrass ([4]; 62 g ai/ha): 95
- Plant response rating, Quackgrass ([4]; 125 g ai/ha): 98
- Plant response rating, Quackgrass ([4]; 250 g ai/ha): 100
- Plant response rating, Common Chickweed ([5]; 16 g ai/ha): 100
- Plant response rating, Common Chickweed ([5]; 31 g ai/ha): 100
- Plant response rating, Common Chickweed ([5]; 62 g ai/ha): 100
- Plant response rating, Common Chickweed ([5]; 125 g ai/ha): 100
- Plant response rating, Common Chickweed ([5]; 250 g ai/ha): 100
- Plant response rating, Common Ragweed ([6]; Postemergence, 31 g ai/ha): 40
- Plant response rating, Common Ragweed ([6]; Postemergence, 125 g ai/ha): 70
- Plant response rating, Common Ragweed ([6]; Postemergence, 250 g ai/ha): 98
- Plant response rating, Common Ragweed ([6]; postemergence, 62 g ai/ha): 50
- Plant response rating, Common Ragweed ([6]; postemergence, 500 g ai/ha): 98
- Plant response rating, Southern Sandbur ([7]; Postemergence, 31 g ai/ha): 10
- Plant response rating, Southern Sandbur ([7]; Postemergence, 125 g ai/ha): 45
- Plant response rating, Southern Sandbur ([7]; Postemergence, 250 g ai/ha): 90
- Plant response rating, Southern Sandbur ([7]; postemergence, 62 g ai/ha): 30
- Plant response rating, Southern Sandbur ([7]; postemergence, 500 g ai/ha): 90
- Plant response rating, Italian Ryegrass ([8]; Postemergence, 31 g ai/ha): 0
- Plant response rating, Italian Ryegrass ([8]; Postemergence, 125 g ai/ha): 35
- Plant response rating, Italian Ryegrass ([8]; Postemergence, 250 g ai/ha): 60
- Plant response rating, Italian Ryegrass ([8]; postemergence, 62 g ai/ha): 15
- Plant response rating, Italian Ryegrass ([8]; postemergence, 500 g ai/ha): 85

Structure (SMILES): CCCc1cc(C(=O)NCC(F)(F)F)nn1Cc1ccnc(C(F)(F)F)c1 [Compound 105]
- Plant response rating, Foxtail, Green ([1]; 16 g ai/ha): 95
- Plant response rating, Foxtail, Green ([1]; 31 g ai/ha): 98
- Plant response rating, Foxtail, Green ([1]; 62 g ai/ha): 100
- Plant response rating, Foxtail, Green ([1]; 125 g ai/ha): 100
- Plant response rating, Foxtail, Green ([1]; 250 g ai/ha): 100
- Plant response rating, Morningglory ([2]; 16 g ai/ha): 100
- Plant response rating, Morningglory ([2]; 31 g ai/ha): 100
- Plant response rating, Morningglory ([2]; 62 g ai/ha): 100
- Plant response rating, Morningglory ([2]; 125 g ai/ha): 100
- Plant response rating, Morningglory ([2]; 250 g ai/ha): 100
- Plant response rating, Dayflower, VA ([3]; 16 g ai/ha): 35
- Plant response rating, Dayflower, VA ([3]; 31 g ai/ha): 75
- Plant response rating, Dayflower, VA ([3]; 62 g ai/ha): 95
- Plant response rating, Dayflower, VA ([3]; 125 g ai/ha): 95
- Plant response rating, Dayflower, VA ([3]; 250 g ai/ha): 100
- Plant response rating, Quackgrass ([4]; 16 g ai/ha): 65
- Plant response rating, Quackgrass ([4]; 31 g ai/ha): 90
- Plant response rating, Quackgrass ([4]; 62 g ai/ha): 98
- Plant response rating, Quackgrass ([4]; 125 g ai/ha): 100
- Plant response rating, Quackgrass ([4]; 250 g ai/ha): 100
- Plant response rating, Common Chickweed ([5]; 16 g ai/ha): 98
- Plant response rating, Common Chickweed ([5]; 31 g ai/ha): 100
- Plant response rating, Common Chickweed ([5]; 62 g ai/ha): 100
- Plant response rating, Common Chickweed ([5]; 125 g ai/ha): 100
- Plant response rating, Common Chickweed ([5]; 250 g ai/ha): 100
- Plant response rating, Common Ragweed ([6]; Postemergence, 31 g ai/ha): 50
- Plant response rating, Common Ragweed ([6]; Postemergence, 125 g ai/ha): 90
- Plant response rating, Common Ragweed ([6]; Postemergence, 250 g ai/ha): 90
- Plant response rating, Common Ragweed ([6]; postemergence, 62 g ai/ha): 70
- Plant response rating, Common Ragweed ([6]; postemergence, 500 g ai/ha): 95
- Plant response rating, Southern Sandbur ([7]; Postemergence, 31 g ai/ha): 0
- Plant response rating, Southern Sandbur ([7]; Postemergence, 125 g ai/ha): 30
- Plant response rating, Southern Sandbur ([7]; Postemergence, 250 g ai/ha): 70
- Plant response rating, Southern Sandbur ([7]; postemergence, 62 g ai/ha): 10
- Plant response rating, Southern Sandbur ([7]; postemergence, 500 g ai/ha): 90
- Plant response rating, Italian Ryegrass ([8]; Postemergence, 31 g ai/ha): 0
- Plant response rating, Italian Ryegrass ([8]; Postemergence, 125 g ai/ha): 30
- Plant response rating, Italian Ryegrass ([8]; Postemergence, 250 g ai/ha): 65
- Plant response rating, Italian Ryegrass ([8]; postemergence, 62 g ai/ha): 15
- Plant response rating, Italian Ryegrass ([8]; postemergence, 500 g ai/ha): 90
